Experimental data as given in US20210045385A1, “PYRIDAZINONE-SUBSTITUTED KETOXIMES AS HERBICIDES” (FMC Corporation, priority 2018, published 2021).

Columns and labels:
Type in all cases: in vivo
[1] = test system: barnyardgrass (Echinochloa crus-galli); assay: Test C postemergence, visual plant response rating
Outline: (§1)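 Compounds in a non-phytotoxic solvent with surfactant were applied as a directed soil spray preemergence or to 2–10 cm, one- to two-leaf plants postemergence, in loam–sand soil. After about 10 d in a greenhouse, injury was visually rated against untreated controls on a 0–100 scale (100 = complete control).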

[2] = test system: foxtail, giant (giant foxtail, Setaria faberi); assay: Test C postemergence, visual plant response rating
Outline: as §1

corn (Zea mays) = assay: Test C postemergence, visual plant response rating
Outline: as §1

[3] = test system: blackgrass (Alopecurus myosuroides); assay: Test C postemergence, visual plant response rating
Outline: as §1

[4] = test system: ragweed (common ragweed, Ambrosia artemisiifolia); assay: Test C postemergence, visual plant response rating
Outline: as §1

[5] = test system: pigweed (Amaranthus retroflexus); assay: Test C postemergence, visual plant response rating
Outline: as §1

[6] = test system: wheat (Triticum aestivum); assay: Test C postemergence, visual plant response rating
Outline: as §1

kochia (Bassia scoparia) [7] = assay: Test C postemergence, visual plant response rating
Outline: as §1

[8] = test system: Italian ryegrass (Lolium mutiflorum); assay: Test C postemergence, visual plant response rating
Outline: as §1

[9] = test system: galium (catchweed bedstraw, Galium aparine); assay: Test C postemergence, visual plant response rating
Outline: as §1

rice (Oryza sativa) = assay: Test D flooded paddy test, visual plant response rating; conditions: 250 g ai/ha, scale 0 to 100 (0 no effect, 100 complete control), 13 to 15 d
Outline: (§2)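 Plants were grown to the 2-leaf stage, pots flooded to 3 cm above soil, and compound applied directly into the paddy water, with the depth held throughout. After 13 to 15 d in a greenhouse, response was rated visually against untreated controls on a 0–100 scale (0 no effect, 100 complete control).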

[10] = test system: barnyardgrass (Echinochloa crus-galli); assay: as above; conditions: 250 g ai/ha, scale 0 to 100 (0 no effect, 100 complete control), 13 to 15 d
Outline: as §2

[11] = test system: sedge umbrella (small-flower umbrella sedge, Cyperus difformis); assay: as above; conditions: 250 g ai/ha, scale 0 to 100 (0 no effect, 100 complete control), 13 to 15 d
Outline: as §2

[12] = test system: duck salad (Heteranthera limosa); assay: as above; conditions: 250 g ai/ha, scale 0 to 100 (0 no effect, 100 complete control), 13 to 15 d
Outline: as §2

[13] = test system: barnyardgrass (Echinochloa crus-galli); assay: Test C preemergence, visual plant response rating; conditions: Test C, 0 is no effect, 100 is complete control
Outline: as §1

[14] = test system: foxtail, giant (giant foxtail, Setaria faberi); assay: Test C preemergence, visual plant response rating; conditions: Test C, 0 is no effect, 100 is complete control
Outline: as §1

[15] = test system: ragweed (common ragweed, Ambrosia artemisiifolia); assay: Test C preemergence, visual plant response rating; conditions: Test C, 0 is no effect, 100 is complete control
Outline: as §1

[16] = test system: pigweed (Amaranthus retroflexus); assay: Test C preemergence, visual plant response rating; conditions: Test C, 0 is no effect, 100 is complete control
Outline: as §1

kochia (Bassia scoparia) [17] = assay: Test C preemergence, visual plant response rating; conditions: Test C, 0 is no effect, 100 is complete control
Outline: as §1

[18] = test system: Italian ryegrass (Lolium mutiflorum); assay: Test C preemergence, visual plant response rating; conditions: Test C, 0 is no effect, 100 is complete control
Outline: as §1

[19] = Test C, postemergence, 125 g ai/ha

SMILES | Barnyardgrass plant response rating (0 to 100 scale) ([1]; Postemergence, 31 g ai/ha) | Barnyardgrass plant response rating (0 to 100 scale) [1, 19] | Foxtail, Giant plant response rating (0 to 100 scale) ([2]; Postemergence, 31 g ai/ha) | Foxtail, Giant plant response rating (0 to 100 scale) [2, 19] | Corn plant response rating (0 to 100 scale) (corn (Zea mays); Postemergence, 31 g ai/ha) | Corn plant response rating (0 to 100 scale) (corn (Zea mays); [19]) | Blackgrass plant response rating (0 to 100 scale) ([3]; Postemergence, 31 g ai/ha) | Blackgrass plant response rating (0 to 100 scale) [3, 19] | Ragweed plant response rating (0 to 100 scale) ([4]; Postemergence, 31 g ai/ha) | Ragweed plant response rating (0 to 100 scale) [4, 19] | Pigweed plant response rating (0 to 100 scale) ([5]; Postemergence, 31 g ai/ha) | Pigweed plant response rating (0 to 100 scale) [5, 19] | Wheat plant response rating (0 to 100 scale) ([6]; Postemergence, 31 g ai/ha) | Wheat plant response rating (0 to 100 scale) [6, 19] | Kochia plant response rating (0 to 100 scale) (kochia (Bassia scoparia) [7]; Postemergence, 31 g ai/ha) | Kochia plant response rating (0 to 100 scale) (kochia (Bassia scoparia) [7]; [19]) | Ryegrass, Italian plant response rating (0 to 100 scale) ([8]; Postemergence, 31 g ai/ha) | Ryegrass, Italian plant response rating (0 to 100 scale) [8, 19] | Galium plant response rating (0 to 100 scale) ([9]; Postemergence, 31 g ai/ha) | Galium plant response rating (0 to 100 scale) [9, 19] | other results
C#CCO/N=C(\c1cccc(/C=C/Cl)c1)c1c(O)c(C)nn(C)c1=O [Compound 254] | 30 | 50 | 20 | 60 | 0 | 10 | 10 | 70 | 30 | 50 | 20 | 70 | 30 | 60 | 50 | 70 | 20 | 70 | 0 | 40 | Plant response rating, Rice (Flood) (rice (Oryza sativa)): 0; Plant response rating, Barnyardgrass (Flood) [10]: 0; Plant response rating, Sedge, Umbrella (Flood) [11]: 0; Plant response rating, Ducksalad (Flood) [12]: 0; Barnyardgrass plant response rating (0 to 100 scale) ([13]; 31 g ai/ha): 0; Barnyardgrass plant response rating (0 to 100 scale) ([13]; 125 g ai/ha): 0; Foxtail, Giant plant response rating (0 to 100 scale) ([14]; 31 g ai/ha): 0; Foxtail, Giant plant response rating (0 to 100 scale) ([14]; 125 g ai/ha): 40; Ragweed plant response rating (0 to 100 scale) ([15]; 31 g ai/ha): 40; Ragweed plant response rating (0 to 100 scale) ([15]; 125 g ai/ha): 90; Pigweed plant response rating (0 to 100 scale) ([16]; 31 g ai/ha): 0; Pigweed plant response rating (0 to 100 scale) ([16]; 125 g ai/ha): 10; Kochia plant response rating (0 to 100 scale) (kochia (Bassia scoparia) [17]; 31 g ai/ha): 0; Kochia plant response rating (0 to 100 scale) (kochia (Bassia scoparia) [17]; 125 g ai/ha): 0; Ryegrass, Italian plant response rating (0 to 100 scale) ([18]; 31 g ai/ha): 20; Ryegrass, Italian plant response rating (0 to 100 scale) ([18]; 125 g ai/ha): 60
C#CCO/N=C(/c1cccc(/C=C\Cl)c1)c1c(O)c(C)nn(C)c1=O [Compound 261] | 20 | 40 | 10 | 50 | 0 | 10 | 0 | 60 | 40 | 60 | 50 | 60 | 0 | 50 | 30 | 60 | 0 | 60 | 40 | 80 | Plant response rating, Rice (Flood) (rice (Oryza sativa)): 0; Plant response rating, Barnyardgrass (Flood) [10]: 0; Plant response rating, Sedge, Umbrella (Flood) [11]: 0; Plant response rating, Ducksalad (Flood) [12]: 0; Barnyardgrass plant response rating (0 to 100 scale) ([13]; 31 g ai/ha): 0; Barnyardgrass plant response rating (0 to 100 scale) ([13]; 125 g ai/ha): 0; Foxtail, Giant plant response rating (0 to 100 scale) ([14]; 31 g ai/ha): 0; Foxtail, Giant plant response rating (0 to 100 scale) ([14]; 125 g ai/ha): 10; Ragweed plant response rating (0 to 100 scale) ([15]; 31 g ai/ha): 0; Ragweed plant response rating (0 to 100 scale) ([15]; 125 g ai/ha): 10; Pigweed plant response rating (0 to 100 scale) ([16]; 31 g ai/ha): 0; Pigweed plant response rating (0 to 100 scale) ([16]; 125 g ai/ha): 10; Kochia plant response rating (0 to 100 scale) (kochia (Bassia scoparia) [17]; 31 g ai/ha): 0; Kochia plant response rating (0 to 100 scale) (kochia (Bassia scoparia) [17]; 125 g ai/ha): 0; Ryegrass, Italian plant response rating (0 to 100 scale) ([18]; 31 g ai/ha): 0; Ryegrass, Italian plant response rating (0 to 100 scale) ([18]; 125 g ai/ha): 70
C#CCO/N=C(\c1cccc(/C=C\Cl)c1)c1c(O)c(C)nn(C)c1=O [Compound 264] | 10 | 50 | 10 | 60 | 10 | 0 | 30 | 60 | 40 | 60 | 40 | 60 | 20 | 50 | 40 | 70 | 0 | 70 | 50 | 70 | Plant response rating, Rice (Flood) (rice (Oryza sativa)): 0; Plant response rating, Barnyardgrass (Flood) [10]: 0; Plant response rating, Sedge, Umbrella (Flood) [11]: 0; Plant response rating, Ducksalad (Flood) [12]: 0; Barnyardgrass plant response rating (0 to 100 scale) ([13]; 31 g ai/ha): 0; Barnyardgrass plant response rating (0 to 100 scale) ([13]; 125 g ai/ha): 0; Foxtail, Giant plant response rating (0 to 100 scale) ([14]; 31 g ai/ha): 0; Foxtail, Giant plant response rating (0 to 100 scale) ([14]; 125 g ai/ha): 20; Ragweed plant response rating (0 to 100 scale) ([15]; 31 g ai/ha): 0; Ragweed plant response rating (0 to 100 scale) ([15]; 125 g ai/ha): 30; Pigweed plant response rating (0 to 100 scale) ([16]; 31 g ai/ha): 0; Pigweed plant response rating (0 to 100 scale) ([16]; 125 g ai/ha): 30; Kochia plant response rating (0 to 100 scale) (kochia (Bassia scoparia) [17]; 31 g ai/ha): 0; Kochia plant response rating (0 to 100 scale) (kochia (Bassia scoparia) [17]; 125 g ai/ha): 0; Ryegrass, Italian plant response rating (0 to 100 scale) ([18]; 31 g ai/ha): 0; Ryegrass, Italian plant response rating (0 to 100 scale) ([18]; 125 g ai/ha): 90
CCCCON=C(c1cc(Cl)cc(Cl)c1Cl)c1c(O)c(C)nn(C)c1=O [Compound 268] | 50 | 60 | 60 | 90 | 0 | 30 | 0 | 20 | 70 | 100 | 10 | 20 | 0 | 20 | 10 | 20 | 60 | 100 | 20 | 50 | Plant response rating, Rice (Flood) (rice (Oryza sativa)): 0; Plant response rating, Barnyardgrass (Flood) [10]: 0; Plant response rating, Sedge, Umbrella (Flood) [11]: 0; Plant response rating, Ducksalad (Flood) [12]: 0; Barnyardgrass plant response rating (0 to 100 scale) ([13]; 31 g ai/ha): 30; Barnyardgrass plant response rating (0 to 100 scale) ([13]; 125 g ai/ha): 70; Foxtail, Giant plant response rating (0 to 100 scale) ([14]; 31 g ai/ha): 70; Foxtail, Giant plant response rating (0 to 100 scale) ([14]; 125 g ai/ha): 100; Ragweed plant response rating (0 to 100 scale) ([15]; 31 g ai/ha): 10; Ragweed plant response rating (0 to 100 scale) ([15]; 125 g ai/ha): 60; Pigweed plant response rating (0 to 100 scale) ([16]; 31 g ai/ha): 0; Pigweed plant response rating (0 to 100 scale) ([16]; 125 g ai/ha): 0; Kochia plant response rating (0 to 100 scale) (kochia (Bassia scoparia) [17]; 31 g ai/ha): 0; Kochia plant response rating (0 to 100 scale) (kochia (Bassia scoparia) [17]; 125 g ai/ha): 0; Ryegrass, Italian plant response rating (0 to 100 scale) ([18]; 31 g ai/ha): 20; Ryegrass, Italian plant response rating (0 to 100 scale) ([18]; 125 g ai/ha): 90
